We go through four compounds from patent publication US20220313717A1, “METHODS OF TREATING CRYPTOCOCCUS INFECTIONS” (MATINAS BIOPHARMA NANOTECHNOLOGIES, INC., priority 2019, published 2022).

For data set [1], the system named is Cryptococcus spp. The settings on record: in vivo, cited from earlier work.
Data set [2] in a line: Participant subjective impressions of cAMB versus prior IV AMB (qualitative scale, visual analog). The arrangement: species or system human. Conditions: recall of prior IV therapy (6/24).
Description: Trial endpoints included: 1) Proportion of daily dose received and tolerated without vomiting within 30 minutes; 2) Cumulative score of nausea, vomiting, diarrhea by Common Terminology Criteria AE (CTCAE) grade scoring criteria (U.S. Department of Health and Human Services NIoH, National Cancer Institute, 2017, Common Terminology Criteria for Adverse Events (CTCAE) v 5.0); 3) Incidence of adverse events (AEs) by National Institute of Allergy and Infectious Diseases (NIAID) Division of AIDS (DAIDS) toxicity scale (version 2017) for Grade 1-5 or serious AEs (SAE) (U.S. Department of Health and Human Services NIoH, National Institute of Allergy and Infectious Diseases, Division of AIDS, 2017, Division of AIDS (DAIDS) Table for Grading the Severity of Adult and Pediatric Adverse Events, Corrected Version 2.1.); 4) Participant subjective impression(s) of cAMB by visual analog and other scales. All clinical and laboratory AEs were followed up until resolution.
Statistical analyses were primarily descriptive. The median and interquartile ranges or the number and proportions were reported where appropriate. Area under the curve (AUC) calculations were made using a linear trapezoidal method with statistical comparison by ANOVA. […]
Using a qualitative scale, we assessed participant impressions of their cAMB experience versus their prior IV AMB experience in the Phase 1A cohort.
The next data set deals with CYP3A4 (Homo sapiens, UniProt P08684). Conditions: cited from earlier work.
Chain of CYP3A4 (P08684 whole entry): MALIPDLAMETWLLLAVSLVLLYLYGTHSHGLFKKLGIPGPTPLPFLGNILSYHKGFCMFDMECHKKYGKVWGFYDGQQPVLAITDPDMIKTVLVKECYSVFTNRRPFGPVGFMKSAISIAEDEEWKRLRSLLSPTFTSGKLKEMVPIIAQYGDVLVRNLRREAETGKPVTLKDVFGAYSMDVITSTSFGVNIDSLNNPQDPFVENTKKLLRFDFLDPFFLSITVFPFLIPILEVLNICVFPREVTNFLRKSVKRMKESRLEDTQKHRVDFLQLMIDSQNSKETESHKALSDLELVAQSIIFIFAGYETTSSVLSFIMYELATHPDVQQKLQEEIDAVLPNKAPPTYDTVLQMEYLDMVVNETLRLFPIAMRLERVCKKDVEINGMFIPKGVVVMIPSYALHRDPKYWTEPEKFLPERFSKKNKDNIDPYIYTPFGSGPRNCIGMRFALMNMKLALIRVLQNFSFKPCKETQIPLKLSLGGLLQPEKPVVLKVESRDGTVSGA
The target in another data set is CYP2C9 (Homo sapiens, UniProt P11712). The settings on record: cited from earlier work.
Chain of CYP2C9 (P11712 whole entry): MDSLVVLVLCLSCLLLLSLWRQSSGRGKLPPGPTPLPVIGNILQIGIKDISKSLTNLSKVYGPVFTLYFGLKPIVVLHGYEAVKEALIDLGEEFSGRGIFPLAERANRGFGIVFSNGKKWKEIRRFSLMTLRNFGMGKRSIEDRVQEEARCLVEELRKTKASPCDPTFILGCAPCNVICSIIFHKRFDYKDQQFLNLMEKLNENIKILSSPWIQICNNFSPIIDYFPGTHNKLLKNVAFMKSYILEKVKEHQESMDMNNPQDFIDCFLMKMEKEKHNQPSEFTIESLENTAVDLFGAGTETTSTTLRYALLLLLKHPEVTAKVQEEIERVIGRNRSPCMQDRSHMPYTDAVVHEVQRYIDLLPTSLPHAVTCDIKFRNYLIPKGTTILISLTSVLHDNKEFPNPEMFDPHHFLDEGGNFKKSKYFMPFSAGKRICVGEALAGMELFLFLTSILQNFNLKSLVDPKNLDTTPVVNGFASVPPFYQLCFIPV
Data set [3] relates to Cryptococcus spp. The settings on record: cited from earlier work.

Turning to `OC(Cn1cnnn1)(c1ccc(F)cc1F)C(F)(F)c1ccc(-c2ccc(OCC(F)(F)F)cc2)cn1` (stereo not drawn) [VT-1129], the “fungicidal activity in mouse models of Cryptococcus spp. infection” value with Cryptococcus spp. [1] is reported as “fungicidal”. The CNS penetration result with Cryptococcus spp. [1] (mouse) is recorded as “good CNS penetration”.

Turning to `C[C@@H]1[C@H](O)[C@@H](C)/C=C/C=C/C=C/C=C/C=C/C=C/C=C/[C@H](O[C@@H]2O[C@H](C)[C@@H](O)[C@H](N)[C@@H]2O)C[C@@H]2O[C@](O)(C[C@@H](O)C[C@@H](O)[C@H](O)CC[C@@H](O)C[C@@H](O)CC(=O)O[C@H]1C)C[C@H](O)[C@H]2C(=O)O` [IV AMB, amphotericin B], the “participants who recalled severe nausea” value in data set [2] was 25%.

As for `OC(Cn1cncn1)(Cn1cncn1)c1ccc(F)cc1F` [Fluconazole, fluconazole], at CYP3A4, the CYP3A4 inhibition entry was “moderate CYP3A4 inhibitor”. Besides, the CYP2C9 inhibition result on CYP2C9 is on record as “potent CYP2C9 inhibitor”.

For `Nc1ncccc1-c1cc(Cc2ccc(COc3ccccn3)cc2)no1` [E1210], the “in vitro activity against Cryptococcus spp.” value in the data set on Cryptococcus spp. [3] is “has in vitro activity against Cryptococcus spp”.
